Experimental data reported in paper PMC12700550, “DLL4^+ neutrophils promote Notch1-mediated endothelial PANoptosis to exacerbate acute lung injury in sepsis” (The Journal of Clinical Investigation, 2025).
Several values for one entry are separate records, joined by “and”; a condition that tells them apart may be missing. Identical values can stand only once.

Experiments:
C57BL/6 mice, CLP sepsis = assay: Lung water content, CLP mice; assay type: in vivo, mouse; conditions: 20 h; for lung water content (wet weight – dry weight)/wet weight (Figure 6K): 10 mg/kg NDI, individual mice
Protocol: Sepsis was induced in mice by cecal ligation and puncture (CLP) as described previously ([45], [46]). Mice were anesthetized with isoflurane to a surgical plane and placed in a supine position. CLP was performed through a midline laparotomy. The abdomen was shaved and disinfected. Through a 2 cm midline incision, the cecum was exposed and then ligated with a 4-0 silk suture 1 cm proximal from the distal cecal extremity. […] A small amount of cecal content was extruded through both holes, and the ligated cecum was returned to the peritoneal cavity. The wound was closed in layers. […] A small amount of cecal content was extruded. […] Vehicle groups received an equivalent volume of PBS, while treatment groups received NDI 10 mg/kg in […] PBS via retro-orbital injection after CLP. This dose was chosen primarily on the basis of our laboratory’s prior experience, we have consistently used this dose in mouse CLP models with reproducible efficacy and without observable toxicity ([39], [44]). Sham-operated animals underwent a laparotomy without CLP. After closure, the mice received a subcutaneous injection of 0.5 mL of normal saline to overcome surgery-induced dehydration. […] All mice were subcutaneously injected with a single dose of 0.1 mg/kg buprenorphine after CLP. Lung vascular leakage was quantified using the Evans blue dye–labeled (EBD-labeled) albumin extravasation assay ([48]). […] Sigma-Aldrich) via retro-orbital injection. At 1 hour after EBD administration (4.5 hours after the end of resuscitation), the lungs were perfused with heparinized (1 U/mL) normal saline via right ventricle injection to remove intravascular dye. The whole lung was dehydrated for 48 hours at 60°C, immersed in formamide (1 mL/g wet weight; Sigma-Aldrich) at 37°C for 48 hours, and centrifuged at 5,000g for 30 minutes. The amount of extracted EBD in the supernatant was quantified by spectrophotometry. The concentration of extravasated EBD-albumin in lung homogenates was expressed as nanograms EBD per milligram of dry lung tissue. Lung water content was calculated as (wet weight – dry weight)/wet weight %.

IL-6 = assay: Serum IL-6, CLP mice, ELISA; assay type: in vivo, mouse; conditions: DLL4^+ neutrophil-injected CLP mice, 10 mg/kg, 20 h
Protocol: Sepsis was induced in mice by cecal ligation and puncture (CLP) as described previously ([45], [46]). Mice were anesthetized with isoflurane to a surgical plane and placed in a supine position. CLP was performed through a midline laparotomy. The abdomen was shaved and disinfected. Through a 2 cm midline incision, the cecum was exposed and then ligated with a 4-0 silk suture 1 cm proximal from the distal cecal extremity. For 20-hour CLP experiments, the cecum was punctured twice with a 22-gauge needle. A small amount of cecal content was extruded through both holes, and the ligated cecum was returned to the peritoneal cavity. The wound was closed in layers. For 10-day sepsis survival studies, the cecum was punctured once with a 22-gauge needle. A small amount of cecal content was extruded. Mice were allocated to the vehicle and adoptive transfer of DLL4^+ neutrophils or DLL4^– neutrophils groups. […]
Blood was collected by heart puncture and centrifuged at 1,500g and 4°C for 10 minutes, and the plasma was separated to assess cytokine levels using enzyme-linked immunosorbent assay (ELISA) kits (BD Biosciences). The plasma TNF-α (catalog 558534) and IL-6 (catalog 555240) levels were measured by ELISA.

[1] = test system: DLL4 expression on human neutrophils; assay: Frequency of DLL4^+ neutrophils (CD66^+DLL4^+), human peripheral blood neutrophils; assay type: cell-based; conditions: 12 h
Description: Blood samples were obtained from the deidentified healthy human subjects. Written informed consent was obtained from all participants, and human subject protocols were approved by the Institutional Review Board of the North Shore University Hospital. Five milliliters of blood was collected by venipuncture and placed in EDTA blood collection tubes. We isolated the neutrophils from fresh blood samples by immunomagnetic cell separation using an EasySep Direct Human Neutrophil Isolation Kit (catalog 19666, Stem Cell Technologies). A total of 20 × 10^6 neutrophils were obtained from 5 mL of blood. Neutrophils (1 × 10^6 cells/mL) were stimulated with 1 μg/mL eCIRP for 12 hours. The cells were then stained with anti-CD66b (clone G10F5, catalog 984102, BioLegend) and DLL4 antibodies (clone MHD4-46, catalog 346506, BioLegend), and the frequencies (percentage) of DLL4^+ neutrophils were detected by flow cytometry.

Row | Molecule | effect on lung water content (C57BL/6 mice, CLP sepsis; DLL4^+ neutrophil-injected CLP mice, 10 mg/kg) | lung water content (wet weight – dry weight)/wet weight (Figure 6K) (C57BL/6 mice, CLP sepsis; DLL4^+ neutrophils + CLP) | lung water content (wet weight – dry weight)/wet weight (Figure 6K) (C57BL/6 mice, CLP sepsis; DLL4^– neutrophils + CLP) | effect on serum IL-6 (IL-6) | frequency of DLL4^+ neutrophils (Figure 1K) ([1]; human neutrophils 1 × 10^6/mL, eCIRP 1 μg/mL, individual replicates) | effect on frequency of DLL4^+ neutrophils ([1]; human peripheral blood neutrophils, 1 μg/mL)
1 | ECAGSPCHNGGTCEDGI [NDI] | significantly attenuated these effects, reducing both lung water content and Evans blue dye content | 71.922% and 71.5282% and 71.1472% and 70.6857% and 70.3749% and 72.6514% and 72.546% and 71.2677% and 69.0684% and 72.1189% and 71.6599% and 71.2762% | 69.6732% and 70.471% and 69.6655% and 68.9338% and 68.9855% and 70.575% and 70.9924% and 68.7155% and 69.153% | significantly reduced the serum levels of hepatic and cell injury markers and proinflammatory cytokines | – | –
2 | eCIRP: extracellular cold-inducible RNA-binding protein; recombinant murine, produced in our laboratory (protein, UniProt P60824 1-172, looked up) Cold-inducible RNA-binding …: MASDEGKLFVGGLSFDTNEQALEQVFSKYGQISEVVVVKDRETQRSRGFGFVTFENIDDAKDAMMAMNGKSVDGRQIRVDQAGKSSDNRSRGYRGGSAGGRGFFRGGRSRGRGFSRGGGDRGYGGGRFESRSGGYGGSRDYYASRSQGGSYGYRSSGGSYRDSYDSYATHNE | – | – | – | – | 16% and 10.3% and 4.81% and 7.94% and 7.27% and 10.4% and 15.89% and 20.5% and 19.83% | significantly increased the frequency of DLL4^+ neutrophils
